Patent US10131652B2, “Pyrimidinyloxy benzene derivatives as herbicides” (E. I. DU PONT DE NEMOURS AND COMPANY, priority 2014, dated 2018)

Assays:
Type in all cases: in vivo
[1] = test system: pigweed (Amaranthus retroflexus); experiment: Test D pre-/postemergence plant response
Procedure, shortened: (§1)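 Visual injury scoring (0–100) at 13 to 15 days in greenhouse. Preemergence sprays on seeded loam/sand; postemergence sprays on 1–4 leaf plants.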

[2] = test system: Italian ryegrass (Lolium multiflorum); experiment: Test D pre-/postemergence plant response
Procedure, shortened: as §1

[3] = test system: large (Lg) crabgrass (Digitaria sanguinalis); experiment: Test D pre-/postemergence plant response
Procedure, shortened: as §1

[4] = test system: waterhemp (common waterhemp, Amaranthus rudis); experiment: Test D pre-/postemergence plant response
Procedure, shortened: as §1

corn (Zea mays) = experiment: Test D pre-/postemergence plant response
Procedure, shortened: as §1

[5] = test system: lambsquarters (Chenopodium album); experiment: Test D pre-/postemergence plant response
Procedure, shortened: as §1

[6] = test system: barnyardgrass (Echinochloa crus-galli); experiment: Test D pre-/postemergence plant response
Procedure, shortened: as §1

[7] = test system: blackgrass (Alopecurus myosuroides); experiment: Test D pre-/postemergence plant response
Procedure, shortened: as §1

[8] = test system: morningglory (Ipomoea coccinea); experiment: Test D pre-/postemergence plant response
Procedure, shortened: as §1

[9] = test system: velvetleaf (Abutilon theophrasti); experiment: Test D pre-/postemergence plant response
Procedure, shortened: as §1

[10] = test system: giant foxtail (Setaria faberii); experiment: Test D pre-/postemergence plant response
Procedure, shortened: as §1

soybean (Glycine max) = experiment: Test D pre-/postemergence plant response
Procedure, shortened: as §1

[11] = test system: ragweed (common ragweed, Ambrosia elatior); experiment: Test B pre-/postemergence plant response
Procedure, shortened: (§2)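 Visual injury rating, 0 (no effect) to 100 (complete control), vs untreated controls after ~10 d greenhouse. Pre: directed soil spray after planting in loam/sand. Post: plants 2–10 cm, 1–2 leaf stage. Compound in non-phytotoxic solvent plus surfactant.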

[12] = test system: Italian ryegrass (Lolium multiflorum); experiment: Test B pre-/postemergence plant response
Procedure, shortened: as §2

kochia (Kochia scoparia) = experiment: Test B pre-/postemergence plant response
Procedure, shortened: as §2

[13] = Postemergence, 16 g ai/ha, scale 0 to 100 (0 no effect, 100 complete control)
[14] = Postemergence, 31 g ai/ha, scale 0 to 100 (0 no effect, 100 complete control)
[15] = Postemergence, 62 g ai/ha, scale 0 to 100, 0 no effect, 100 complete control
[16] = Postemergence, 125 g ai/ha, scale 0 to 100, 0 no effect, 100 complete control
[17] = Preemergence, 16 g ai/ha, scale 0 to 100 (0 no effect, 100 complete control)
[18] = Preemergence, 31 g ai/ha, scale 0 to 100 (0 no effect, 100 complete control)
[19] = Preemergence, 62 g ai/ha, scale 0 to 100 (0 no effect, 100 complete control)
[20] = 125 g ai/ha, postemergence, 0 to 100 scale, 0 no effect, 100 complete control
[21] = Postemergence, 500 g ai/ha, 0 to 100 scale (0 no effect, 100 complete control)
[22] = Preemergence, 125 g ai/ha, 0 to 100 scale where 0 is no effect and 100 is complete control
[23] = Preemergence, 500 g ai/ha, 0 to 100 scale where 0 is no effect and 100 is complete control

## Cc1cc(-c2ccccc2Oc2ncc(Cl)cn2)no1 [Compound 60]
[1]; [13]
  Pigweed plant response rating: 20
[1]; [14]
  Pigweed plant response rating: 35
[1]; [15]
  Plant response rating, Pigweed: 55
[1]; [16]
  Plant response rating, Pigweed: 70
[1]; Preemergence, 125 g ai/ha
  Plant response rating (scale 0 to 100), Pigweed: 100
[1]; [17]
  Plant response rating, Pigweed: 75
[1]; [18]
  Plant response rating, Pigweed: 100
[1]; [19]
  Plant response rating, Pigweed: 100
[2]; [13]
  Ryegrass, Italian plant response rating: 0
[2]; [14]
  Ryegrass, Italian plant response rating: 0
[2]; [15]
  Plant response rating, Ryegrass, Italian: 0
[2]; [16]
  Plant response rating, Ryegrass, Italian: 0
[2]; Preemergence, 125 g ai/ha
  Plant response rating (scale 0 to 100), Ryegrass, Italian: 30
[2]; [17]
  Plant response rating, Ryegrass, Italian: 0
[2]; [18]
  Plant response rating, Ryegrass, Italian: 0
[2]; [19]
  Plant response rating, Ryegrass, Italian: 0
[3]; [13]
  Crabgrass, Large plant response rating: 5
[3]; [14]
  Crabgrass, Large plant response rating: 5
[3]; [15]
  Plant response rating, Crabgrass, Large: 5
[3]; [16]
  Plant response rating, Crabgrass, Large: 5
[3]; Preemergence, 125 g ai/ha
  Plant response rating (scale 0 to 100), Crabgrass, Large: 100
[3]; [17]
  Plant response rating, Crabgrass, Large: 5
[3]; [18]
  Plant response rating, Crabgrass, Large: 55
[3]; [19]
  Plant response rating, Crabgrass, Large: 100
[4]; [13]
  Waterhemp plant response rating: 15
[4]; [14]
  Waterhemp plant response rating: 30
[4]; [15]
  Plant response rating, Waterhemp: 50
[4]; [16]
  Plant response rating, Waterhemp: 70
[4]; Preemergence, 125 g ai/ha
  Plant response rating (scale 0 to 100), Waterhemp: 100
[4]; [17]
  Plant response rating, Waterhemp: 80
[4]; [18]
  Plant response rating, Waterhemp: 100
[4]; [19]
  Plant response rating, Waterhemp: 100
Corn (Zea mays); [13]
  Corn plant response rating: 0
Corn (Zea mays); [14]
  Corn plant response rating: 0
Corn (Zea mays); [15]
  Plant response rating, Corn: 5
Corn (Zea mays); [16]
  Plant response rating, Corn: 5
Corn (Zea mays); Preemergence, 125 g ai/ha
  Plant response rating (scale 0 to 100), Corn: 5
Corn (Zea mays); [17]
  Plant response rating, Corn: 5
Corn (Zea mays); [18]
  Plant response rating, Corn: 0
Corn (Zea mays); [19]
  Plant response rating, Corn: 0
[5]; [13]
  Lambsquarters plant response rating: 20
[5]; [14]
  Lambsquarters plant response rating: 20
[5]; [15]
  Plant response rating, Lambsquarters: 55
[5]; [16]
  Plant response rating, Lambsquarters: 75
[5]; Preemergence, 125 g ai/ha
  Plant response rating (scale 0 to 100), Lambsquarters: 100
[5]; [17]
  Plant response rating, Lambsquarters: 10
[5]; [18]
  Plant response rating, Lambsquarters: 80
[5]; [19]
  Plant response rating, Lambsquarters: 85
[6]; [13]
  Barnyardgrass plant response rating: 0
[6]; [14]
  Barnyardgrass plant response rating: 0
[6]; [15]
  Plant response rating, Barnyardgrass: 10
[6]; [16]
  Plant response rating, Barnyardgrass: 10
[6]; Preemergence, 62 g ai/ha
  Plant response rating (scale 0 to 100), Barnyardgrass: 30
[6]; Preemergence, 125 g ai/ha
  Plant response rating (scale 0 to 100), Barnyardgrass: 75
[6]; [17]
  Plant response rating, Barnyardgrass: 0
[6]; [18]
  Plant response rating, Barnyardgrass: 5
[7]; [13]
  Blackgrass plant response rating: 0
[7]; [14]
  Blackgrass plant response rating: 0
[7]; [15]
  Plant response rating, Blackgrass: 5
[7]; [16]
  Plant response rating, Blackgrass: 20
[7]; Preemergence, 125 g ai/ha
  Plant response rating (scale 0 to 100), Blackgrass: 70
[7]; [17]
  Plant response rating, Blackgrass: 0
[7]; [18]
  Plant response rating, Blackgrass: 5
[7]; [19]
  Plant response rating, Blackgrass: 10
[8]; [13]
  Morningglory plant response rating: 0
[8]; [14]
  Morningglory plant response rating: 40
[8]; [15]
  Plant response rating, Morningglory: 25
[8]; [16]
  Plant response rating, Morningglory: 40
[8]; Preemergence, 125 g ai/ha
  Plant response rating (scale 0 to 100), Morningglory: 20
[8]; [17]
  Plant response rating, Morningglory: 0
[8]; [18]
  Plant response rating, Morningglory: 0
[8]; [19]
  Plant response rating, Morningglory: 10
[9]; [13]
  Velvetleaf plant response rating: 40
[9]; [14]
  Velvetleaf plant response rating: 50
[9]; [15]
  Plant response rating, Velvetleaf: 65
[9]; [16]
  Plant response rating, Velvetleaf: 80
[9]; Preemergence, 125 g ai/ha
  Plant response rating (scale 0 to 100), Velvetleaf: 100
[9]; [17]
  Plant response rating, Velvetleaf: 60
[9]; [18]
  Plant response rating, Velvetleaf: 100
[9]; [19]
  Plant response rating, Velvetleaf: 100
[10]; [13]
  Foxtail, Giant plant response rating: 0
[10]; [14]
  Foxtail, Giant plant response rating: 5
[10]; [15]
  Plant response rating, Foxtail, Giant: 5
[10]; [16]
  Plant response rating, Foxtail, Giant: 10
[10]; Preemergence, 125 g ai/ha
  Plant response rating (scale 0 to 100), Foxtail, Giant: 95
[10]; [17]
  Plant response rating, Foxtail, Giant: 0
[10]; [18]
  Plant response rating, Foxtail, Giant: 5
[10]; [19]
  Plant response rating, Foxtail, Giant: 40
Soybean (Glycine max); [13]
  Soybean plant response rating: 65
Soybean (Glycine max); [14]
  Soybean plant response rating: 65
Soybean (Glycine max); [15]
  Plant response rating, Soybean: 95
Soybean (Glycine max); [16]
  Plant response rating, Soybean: 95
Soybean (Glycine max); Preemergence, 125 g ai/ha
  Plant response rating (scale 0 to 100), Soybean: 95
Soybean (Glycine max); [17]
  Plant response rating, Soybean: 35
Soybean (Glycine max); [18]
  Plant response rating, Soybean: 55
Soybean (Glycine max); [19]
  Plant response rating, Soybean: 65
[11]; [20]
  Plant response rating, Ragweed: 60
[11]; [21]
  Plant response rating, Ragweed: 90
[11]; [22]
  Plant response rating, Ragweed: 20
[11]; [23]
  Plant response rating, Ragweed: 50
[12]; [20]
  Plant response rating, Ryegrass, Italian: 0
[12]; [21]
  Plant response rating, Ryegrass, Italian: 80
[12]; [22]
  Plant response rating, Ryegrass, Italian: 0
[12]; [23]
  Plant response rating, Ryegrass, Italian: 30
Kochia (Kochia scoparia); [20]
  Plant response rating, Kochia: 90
Kochia (Kochia scoparia); [21]
  Plant response rating, Kochia: 100
Kochia (Kochia scoparia); [22]
  Plant response rating, Kochia: 90
Kochia (Kochia scoparia); [23]
  Plant response rating, Kochia: 100
